Data reported in US9060541B2, “Sterilizer for foods” (Kawakami Co., Ltd., priority 2009, dated 2015).

Assays:
Type in all cases: cell-based
Set-up in all cases: key: D: There is no sterilization effect.; C: There is a sterilization effect in step (1) but no sterilization effect in step (2).; B: There is a sterilization effect up to step (2) but no sterilization effect in step (3).; A: There is a sterilization effect up to step (3)
[1] = tested on: Escherichia coli (NIHJ); assay: Sterilization effect determination test (Fujimoto's modified method of the Kelsey-Sykes method); details: Table 1; compositions of calcinated calcium and ethanol, water remainder; 20° C.; steps (1)-(3); listed as Ethanol 30 wt %
[2] = tested on: Staphylococcus aureus (209P); assay: as above; details: Table 2; compositions of calcinated calcium and ethanol, water remainder; 20° C.; steps (1)-(3); listed as Ethanol 30 wt %
[3] = tested on: Salmonella serotype Agona KX-S143; assay: Comparison test of sterilization effects against various food poisoning microbes
[4] = tested on: Salmonella serotype Rissen KX-S151; assay: as above
[5] = tested on: Salmonella serotype Anatum KX-S152; assay: as above
[6] = Table 7, test microbe solution without yeast extract
[7] = Table 8, yeast extract 4 weight % blended in test microbe solution

Row | SMILES | Sterilization effect [1] | Sterilization effect [2] | Sterilization effect [3, 6] | Sterilization effect [3, 7] | Sterilization effect [4, 6] | Sterilization effect [4, 7] | Sterilization effect [5, 6] | Sterilization effect [5, 7]
1 | CCO [EtOH 30%, ethanol] | C | D | C | C | C | C | C | C
2 | [Na+].[O-]Cl [S.H 150 ppm, sodium hypochlorite] | – | – | A | D | A | D | A | D
